How the values were obtained:
RS4; 11Bcl-2-G101V cells = test: CellTiter-Glo (CTG) cell viability assay in RS4;11-Bcl-2-G101V cells; assay type: cell-based; details: 72 h, 10% FBS, 3 days
Experimental: RS4; 11Bcl-2-G101V, RS4; 11Bcl-2-D103E, RS4; 11Bcl-2-V156D and RS4; 11Bcl-2-G101V-D103E cells were obtained from Cobioer Biosciences. Cells were maintained in the RPMI-1640 medium with 10% FBS, 1% P/S and puromycin (1 μg/mL) at 37° C. and an atmosphere of 5% CO2.
• The effect of representative Compounds of the Disclosure on cell viability was determined using CellTiter-Glo® (CTG) luminescent cell viability assay (Promega, USA) according to the manufacturer's instructions. 95 μL of cell suspension (10000 cells/well) in culture medium were seeded into 96-well plates and cultured 4 hours. Each tested compound was serially diluted in blank culture medium, and 5 μL of the compound dilution was added to the corresponding well of the cell plate. After the addition of the tested compound, the cells were incubated at 37° C. in an atmosphere of 5% CO2 for 3 days. At the end of 3 days, 30 μL of CTG solution was added to each well of the plate and mix contents for 2 minutes on an orbital shaker. Allow the plate to incubate at room temperature for 15 mins to stabilize signal and record RLU on the Biotek plate reader. The readings were normalized to the vehicle cells, and the IC50 was calculated using GraphPad Prism 8 software.

Bcl-2 WT = Bcl-2 WT (Homo sapiens, UniProt P10415); test: Bcl-2 WT inhibition, fluorescence polarization (Flu-BIM tracer) binding assay; details: FP; 20 nM Bcl2, 5 nM Flu-BIM, 1 h incubation; read-out: Bcl-2 w.t. (FP)
Bcl-2 WT, sequence (P10415 whole entry): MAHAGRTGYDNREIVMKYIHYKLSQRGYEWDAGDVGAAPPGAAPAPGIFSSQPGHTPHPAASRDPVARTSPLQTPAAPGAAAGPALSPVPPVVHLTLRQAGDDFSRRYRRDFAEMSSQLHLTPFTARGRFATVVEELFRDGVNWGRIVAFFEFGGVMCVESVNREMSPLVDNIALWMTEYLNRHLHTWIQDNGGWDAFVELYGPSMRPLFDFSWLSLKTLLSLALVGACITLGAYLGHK

MV-4-11 cells = test: CCK-8 cell viability assay in MV-4-11 cells; assay type: cell-based; details: Homo sapiens, MV4-11, 72 h, 10% FBS, 3 days
Experimental: MV-4-11 cells were obtained from University of Michigan. Cells were maintained in the RPMI-1640 medium with 10% FBS and 1% P/S at 37° C. and an atmosphere of 5% CO2.
• The effect of representative Compounds of the Disclosure on cell viability was determined using Cell Counting Kit-8 (CCK-8) assay (Shanghai Life iLab Biotech) according to the manufacturer's instructions. Each tested compound was serially diluted in culture medium, and 100 μL of the compound dilution was added to the corresponding well of the cell plate. 100 μL of MV-4-11 cell suspension (20000 cells/well) in culture medium were seeded into 96-well plates. The cells were incubated at 37° C. in an atmosphere of 5% CO2 for 3 days. At the end of 3 days, 20 μL of CCK-8 solution was added to each well of the plate and incubated for 1-4 hours. The plates were read at 450 nm on the Biotek plate reader. The readings were normalized to the vehicle cells, and the IC50 was calculated using GraphPad Prism 8 software.

| Compound | IC50 (RS4; 11Bcl-2-G101V cells) | IC50 (Bcl-2 WT) | IC50 (MV-4-11 cells) |
| --- | --- | --- | --- |
| Cc1sccc1C1=C(CN2CCN(c3ccc(C(=O)NS(=O)(=O)c4ccc(NCC5CCOCC5)c([N+](=O)[O-])c4)c(Oc4cnc5[nH]ccc5c4)c3)CC2)CCC(C)(C)C1 [Example 1, 2-((1H-pyrrolo[2,3-b]pyridin-5-yl)oxy)-4-(4-((4,4-dimethyl-2-(2-methylthiophen-3-yl)cyclohex-1-en-1-yl)methyl)piperazin-1-yl)-N-((3-nitro-4-(((tetrahydro-2H-pyran-4-yl)methyl)amino)phenyl)sulfonyl)benzamide] | 1170 nM | 15.7 nM | 27 nM |
| Cc1cscc1C1=C(CN2CCN(c3ccc(C(=O)NS(=O)(=O)c4ccc(NCC5CCOCC5)c([N+](=O)[O-])c4)c(Oc4cnc5[nH]ccc5c4)c3)CC2)CCC(C)(C)C1 [Example 2, 2-((1H-pyrrolo[2,3-b]pyridin-5-yl)oxy)-4-(4-((4,4-dimethyl-2-(4-methylthiophen-3-yl)cyclohex-1-en-1-yl)methyl)piperazin-1-yl)-N-((3-nitro-4-(((tetrahydro-2H-pyran-4-yl)methyl)amino)phenyl)sulfonyl)benzamide] | 1300 nM | 15.9 nM | 28 nM |
| CC1(C)CCC(CN2CCN(c3ccc(C(=O)NS(=O)(=O)c4ccc(NCC5CCOCC5)c([N+](=O)[O-])c4)c(Oc4cnc5[nH]ccc5c4)c3)CC2)=C(c2csc(C(F)(F)F)c2)C1 [Example 3, 2-((1H-pyrrolo[2,3-b]pyridin-5-yl)oxy)-4-(4-((4,4-dimethyl-2-(5-(trifluoromethyl)thiophen-3-yl)cyclohex-1-en-1-yl)methyl)piperazin-1-yl)-N-((3-nitro-4-(((tetrahydro-2H-pyran-4-yl)methyl)amino)phenyl)sulfonyl)benzamide] | 3800 nM | 27.7 nM | 214 nM |
| Cc1ccc(C2=C(CN3CCN(c4ccc(C(=O)NS(=O)(=O)c5ccc(NCC6CCOCC6)c([N+](=O)[O-])c5)c(Oc5cnc6[nH]ccc6c5)c4)CC3)CCC(C)(C)C2)s1 [Example 6, 2-((1H-pyrrolo[2,3-b]pyridin-5-yl)oxy)-4-(4-((4,4-dimethyl-2-(5-methylthiophen-2-yl)cyclohex-1-en-1-yl)methyl)piperazin-1-yl)-N-((3-nitro-4-(((tetrahydro-2H-pyran-4-yl)methyl)amino)phenyl)sulfonyl)benzamide] | 3940 nM | 16.2 nM | 66 nM |
| CC(C)c1csc(C2=C(CN3CCN(c4ccc(C(=O)NS(=O)(=O)c5ccc(NCC6CCOCC6)c([N+](=O)[O-])c5)c(Oc5cnc6[nH]ccc6c5)c4)CC3)CCC(C)(C)C2)c1 [Example 8, 2-((1H-pyrrolo[2,3-b]pyridin-5-yl)oxy)-4-(4-((2-(4-isopropylthiophen-2-yl)-4,4-dimethylcyclohex-1-en-1-yl)methyl)piperazin-1-yl)-N-((3-nitro-4-(((tetrahydro-2H-pyran-4-yl)methyl)amino)phenyl)sulfonyl)benzamide] | 1440 nM | 17.7 nM | 21 nM |
| CC(C)c1csc(C2=C(CN3CCN(c4ccc(C(=O)NS(=O)(=O)c5ccc(NC[C@H]6COCCO6)c([N+](=O)[O-])c5)c(Oc5cnc6[nH]ccc6c5)c4)CC3)CCC(C)(C)C2)c1 [Example 10, (S)—N-((4-(((1,4-dioxan-2-yl)methyl)amino)-3-nitrophenyl)sulfonyl)-2-((1H-pyrrolo[2,3-b]pyridin-5-yl)oxy)-4-(4-((2-(4-isopropylthiophen-2-yl)-4,4-dimethylcyclohex-1-en-1-yl)methyl)piperazin-1-yl)benzamide] | 1040 nM | 20.3 nM | 16 nM |
| CC(C)c1sccc1C1=C(CN2CCN(c3ccc(C(=O)NS(=O)(=O)c4ccc(NCC5CCOCC5)c([N+](=O)[O-])c4)c(Oc4cnc5[nH]ccc5c4)c3)CC2)CCC(C)(C)C1 [Example 11, 2-((1H-pyrrolo[2,3-b]pyridin-5-yl)oxy)-4-(4-((2-(2-isopropylthiophen-3-yl)-4,4-dimethylcyclohex-1-en-1-yl)-methyl)piperazin-1-yl)-N-((3-nitro-4-(((tetrahydro-2H-pyran-4-yl)methyl)amino)-phenyl)sulfonyl)benzamide] | 2360 nM | 20.9 nM | 54 nM |
| CC1(C)CCC(CN2CCN(c3ccc(C(=O)NS(=O)(=O)c4ccc(NC[C@H]5COCCO5)c([N+](=O)[O-])c4)c(Oc4cnc5[nH]ccc5c4)c3)CC2)=C(c2cc3c(s2)CCN(c2ccc(F)cc2)C3)C1 [Example 15, (S)—N-((4-(((1,4-dioxan-2-yl)methyl)amino)-3-nitrophenyl)sulfonyl)-2-((1H-pyrrolo[2,3-b]pyridin-5-yl)oxy)-4-(4-((2-(5-(4-fluorophenyl)-4,5,6,7-tetrahydrothieno[3,2-c]pyridin-2-yl)-4,4-dimethylcyclohex-1-en-1-yl)methyl)piperazin-1-yl)benzamide] | 8810 nM | 27.6 nM | 466 nM |
| CC1(C)CCC(CN2CCN(c3ccc(C(=O)NS(=O)(=O)c4ccc(NC[C@H]5CC[C@](C)(O)CC5)c([N+](=O)[O-])c4)c(Oc4cnc5[nH]ccc5c4)c3)CC2)=C(c2cc3c(s2)CCN(c2ccc(F)cc2)C3)C1 [Example 16, 2-((1H-pyrrolo[2,3-b]pyridin-5-yl)oxy)-4-(4-((2-(5-(4-fluorophenyl)-4,5,6,7-tetrahydrothieno[3,2-c]pyridin-2-yl)-4,4-dimethylcyclohex-1-en-1-yl)methyl)piperazin-1-yl)-N-((4-((((1r,4r)-4-hydroxy-4-methylcyclohexyl)methyl)amino)-3-nitrophenyl)sulfonyl)benzamide] | 5630 nM | 42 nM | 445 nM |
| Cc1cc(C(C)(C)O)cc(C)c1-c1csc(C2=C(CN3CCN(c4ccc(C(=O)NS(=O)(=O)c5ccc(NC[C@H]6CC[C@](C)(O)CC6)c([N+](=O)[O-])c5)c(Oc5cnc6[nH]ccc6c5)c4)CC3)CCC(C)(C)C2)c1 [Example 65, 2-((1H-pyrrolo[2,3-b]pyridin-5-yl)oxy)-N-((4-((((1r,4r)-4-hydroxy-4-methylcyclohexyl)methyl)amino)-3-nitrophenyl)sulfonyl)-4-(4-((2-(4-(4-(2-hydroxypropan-2-yl)-2,6-dimethylphenyl)thiophen-2-yl)-4,4-dimethylcyclohex-1-en-1-yl)methyl)piperazin-1-yl)benzamide] | 598 nM | – | 192 nM |
| CC1(C)CCC(CN2CCN(c3ccc(C(=O)NS(=O)(=O)c4ccc(NC[C@H]5CC[C@](C)(O)CC5)c([N+](=O)[O-])c4)c(Oc4cnc5[nH]ccc5c4)c3)CC2)=C(c2cc(-c3c(Cl)cc(C(C)(C)O)cc3Cl)cs2)C1 [Example 66, 2-((1H-pyrrolo[2,3-b]pyridin-5-yl)oxy)-4-(4-((2-(4-(2,6-dichloro-4-(2-hydroxypropan-2-yl)phenyl)thiophen-2-yl)-4,4-dimethylcyclohex-1-en-1-yl)methyl)piperazin-1-yl)-N-((4-((((1r,4r)-4-hydroxy-4-methylcyclohexyl)methyl)amino)-3-nitrophenyl)sulfonyl)benzamide] | 361 nM | – | 132 nM |
| COC(C)(C)c1ccc(-c2csc(C3=C(CN4CCN(c5ccc(C(=O)NS(=O)(=O)c6ccc(NC[C@H]7CC[C@](C)(O)CC7)c([N+](=O)[O-])c6)c(Oc6cnc7[nH]ccc7c6)c5)CC4)CCC(C)(C)C3)c2)c(F)c1 [Example 76, 2-((1H-pyrrolo[2,3-b]pyridin-5-yl)oxy)-4-(4-((2-(4-(2-fluoro-4-(2-methoxypropan-2-yl)phenyl)thiophen-2-yl)-4,4-dimethylcyclohex-1-en-1-yl)methyl)piperazin-1-yl)-N-((4-((((1r,4r)-4-hydroxy-4-methylcyclohexyl)methyl)amino)-3-nitrophenyl)sulfonyl)benzamide] | 1700 nM | – | 95 nM |
| CC1(C)CCC(CN2CCN(c3ccc(C(=O)NS(=O)(=O)c4ccc(NC[C@H]5CC[C@](C)(O)CC5)c([N+](=O)[O-])c4)c(Oc4cnc5[nH]ccc5c4)c3)CC2)=C(c2cc(-c3c(F)cc(C4(O)CCC4)cc3F)cs2)C1 [Example 77, 2-((1H-pyrrolo[2,3-b]pyridin-5-yl)oxy)-4-(4-((2-(4-(2,6-difluoro-4-(1-hydroxycyclobutyl)phenyl)thiophen-2-yl)-4,4-dimethylcyclohex-1-en-1-yl)methyl)piperazin-1-yl)-N-((4-((((1r,4r)-4-hydroxy-4-methylcyclohexyl)methyl)amino)-3-nitrophenyl)sulfonyl)benzamide] | 490 nM | – | 25 nM |

From patent US12577245B2, “Sulfonyl benzamide derivatives as Bcl-2 inhibitors” (ASCENTAGE PHARMA (SUZHOU) CO., LTD., priority 2021, dated 2026)
